ChEMBL document CHEMBL5465560, “Selectivity Literature for EUbOPEN Chemogenomic Library” (2024)

What was measured:
[1] = target: T1, Histone-arginine methyltransferase CARM1 (Homo sapiens) (UniProt Q86X55); details: KMS-20, at 3 µM
T1 sequence (whole entry): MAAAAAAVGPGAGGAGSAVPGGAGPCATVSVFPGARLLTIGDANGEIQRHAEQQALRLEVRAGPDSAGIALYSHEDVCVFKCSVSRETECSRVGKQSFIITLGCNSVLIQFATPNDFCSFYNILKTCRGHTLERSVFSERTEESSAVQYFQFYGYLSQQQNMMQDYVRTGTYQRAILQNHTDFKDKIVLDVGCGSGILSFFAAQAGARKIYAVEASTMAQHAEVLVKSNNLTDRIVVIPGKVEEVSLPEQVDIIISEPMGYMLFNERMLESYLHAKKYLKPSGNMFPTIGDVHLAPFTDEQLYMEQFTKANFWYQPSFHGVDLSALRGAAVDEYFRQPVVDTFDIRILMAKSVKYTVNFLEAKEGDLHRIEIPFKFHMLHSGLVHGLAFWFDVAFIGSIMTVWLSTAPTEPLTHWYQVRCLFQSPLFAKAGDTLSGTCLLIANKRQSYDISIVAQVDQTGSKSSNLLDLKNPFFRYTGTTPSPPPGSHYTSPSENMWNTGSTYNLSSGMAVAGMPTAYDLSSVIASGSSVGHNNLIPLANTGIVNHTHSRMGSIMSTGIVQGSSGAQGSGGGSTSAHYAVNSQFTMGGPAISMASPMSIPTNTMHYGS

[2] = target: T2, Rhodopsin kinase GRK1 (Homo sapiens) (UniProt Q15835); assay: Selectivity interaction (KinomeScan (DiscoverX)) EUB0000666a GRK1; details: at 10 µM
T2 sequence (whole entry): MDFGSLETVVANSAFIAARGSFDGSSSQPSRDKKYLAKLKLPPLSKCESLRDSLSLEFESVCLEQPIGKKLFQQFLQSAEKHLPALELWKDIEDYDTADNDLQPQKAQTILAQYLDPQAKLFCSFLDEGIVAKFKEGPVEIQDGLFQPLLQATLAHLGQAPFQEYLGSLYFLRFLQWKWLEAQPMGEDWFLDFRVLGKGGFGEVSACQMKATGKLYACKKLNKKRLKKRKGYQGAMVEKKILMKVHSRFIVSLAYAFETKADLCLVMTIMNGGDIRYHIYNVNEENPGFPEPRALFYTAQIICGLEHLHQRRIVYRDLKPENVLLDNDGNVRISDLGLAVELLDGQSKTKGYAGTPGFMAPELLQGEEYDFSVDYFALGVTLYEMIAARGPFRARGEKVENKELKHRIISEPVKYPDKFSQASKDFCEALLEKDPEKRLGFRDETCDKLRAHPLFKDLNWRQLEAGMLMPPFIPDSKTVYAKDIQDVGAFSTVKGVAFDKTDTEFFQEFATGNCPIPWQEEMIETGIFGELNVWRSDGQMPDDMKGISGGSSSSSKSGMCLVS

[3] = target: P2X purinoceptor 1 (Homo sapiens) (UniProt P51575); assay: Selectivity interaction (Eurofins CEREP Diversity Profile (receptors and ion channels)) EUB0000279b P2RX1; details: at 10 µM
[4] = target: LIM domain kinase 2 (Homo sapiens) (UniProt P53671); assay: Selectivity interaction (KinomeScan (DiscoverX)) EUB0001049a LIMK2; details: at 1 µM
[5] = Selectivity interaction (Ex-vivo activation of CD20+ B cells in cynomolgus (anti-IgM/IL-4 stimulated pAKT)) EUB0000877a PIK3CD
[6] = target: Cyclin-dependent kinase 8 (Homo sapiens, UniProt P49336); assay: Selectivity interaction (ActivX KiNativ screen (ex vivo kinase selectivity in human PBMCs)) EUB0001619a CDK8; type: cell-based; details: PBMC, at 1 µM
[7] = target: MAP kinase-activated protein kinase 2 (Homo sapiens, UniProt P49137); assay: Selectivity interaction (Kinase panel (literature)) EUB0001199aCl MAPKAPK2; details: at 1 µM
[8] = target: T3, Serine/threonine-protein kinase ULK3 (Homo sapiens) (UniProt Q6PHR2); assay: Selectivity interaction (KinomeScan (DiscoverX)) EUB0000618a ULK3; details: at 10 µM
T3 sequence (whole entry): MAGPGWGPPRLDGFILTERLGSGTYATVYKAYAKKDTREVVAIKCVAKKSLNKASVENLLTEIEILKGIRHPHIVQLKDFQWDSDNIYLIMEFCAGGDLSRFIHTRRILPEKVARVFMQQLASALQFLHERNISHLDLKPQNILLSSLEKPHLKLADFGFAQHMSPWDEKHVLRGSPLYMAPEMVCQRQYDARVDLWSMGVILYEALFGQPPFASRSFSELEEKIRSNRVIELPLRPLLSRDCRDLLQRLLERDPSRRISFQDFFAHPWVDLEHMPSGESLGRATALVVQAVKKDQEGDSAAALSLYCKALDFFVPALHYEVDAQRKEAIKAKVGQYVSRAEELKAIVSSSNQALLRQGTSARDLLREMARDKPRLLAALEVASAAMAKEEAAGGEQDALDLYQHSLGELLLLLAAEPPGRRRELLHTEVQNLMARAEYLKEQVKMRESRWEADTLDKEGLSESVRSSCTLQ

[9] = target: Serine/threonine-protein kinase MRCK beta (Homo sapiens) (UniProt Q9Y5S2); assay: Selectivity interaction (KinomeScan (DiscoverX)) EUB0000655a CDC42BPB; details: at 10 µM
[10] = target: T4, Serine/threonine-protein kinase 17A (Homo sapiens) (UniProt Q9UEE5); assay: Selectivity interaction (Ambit KINOMEscan and KiNATiv profiling in Jurkat cells) EUB0000090b STK17A; type: cell-based; details: at 1 µM
T4 sequence (whole entry): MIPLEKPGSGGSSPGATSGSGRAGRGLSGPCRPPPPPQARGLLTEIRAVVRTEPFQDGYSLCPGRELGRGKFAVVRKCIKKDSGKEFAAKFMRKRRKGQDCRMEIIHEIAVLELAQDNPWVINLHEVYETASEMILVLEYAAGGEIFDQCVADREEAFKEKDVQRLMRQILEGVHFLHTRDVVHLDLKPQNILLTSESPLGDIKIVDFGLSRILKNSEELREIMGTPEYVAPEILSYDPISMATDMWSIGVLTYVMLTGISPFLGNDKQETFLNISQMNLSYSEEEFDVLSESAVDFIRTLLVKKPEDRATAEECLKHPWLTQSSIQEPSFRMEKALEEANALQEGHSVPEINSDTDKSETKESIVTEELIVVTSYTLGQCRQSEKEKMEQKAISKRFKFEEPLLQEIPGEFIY

LIM domain kinase 2 (Homo sapiens), sequence (P53671 whole entry, looked up, the tested form may be a part): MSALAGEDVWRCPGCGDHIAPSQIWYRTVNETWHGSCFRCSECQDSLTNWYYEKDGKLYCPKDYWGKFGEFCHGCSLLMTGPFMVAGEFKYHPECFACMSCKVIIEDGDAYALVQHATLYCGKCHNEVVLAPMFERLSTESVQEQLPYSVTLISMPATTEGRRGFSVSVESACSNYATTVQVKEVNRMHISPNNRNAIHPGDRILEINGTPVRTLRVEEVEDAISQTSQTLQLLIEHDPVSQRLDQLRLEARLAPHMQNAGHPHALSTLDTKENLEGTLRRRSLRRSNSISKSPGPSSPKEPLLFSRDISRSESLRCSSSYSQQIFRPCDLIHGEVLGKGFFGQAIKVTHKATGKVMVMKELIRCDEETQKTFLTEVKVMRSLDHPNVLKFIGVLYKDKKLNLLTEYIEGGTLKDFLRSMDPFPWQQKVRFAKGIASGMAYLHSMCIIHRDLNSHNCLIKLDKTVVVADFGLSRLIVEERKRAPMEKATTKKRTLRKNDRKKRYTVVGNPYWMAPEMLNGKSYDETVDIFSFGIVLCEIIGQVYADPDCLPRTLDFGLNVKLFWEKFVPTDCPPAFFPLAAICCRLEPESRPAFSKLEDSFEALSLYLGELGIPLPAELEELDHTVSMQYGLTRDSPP
P2X purinoceptor 1 (Homo sapiens), sequence (P51575 whole entry, the tested form may be a part): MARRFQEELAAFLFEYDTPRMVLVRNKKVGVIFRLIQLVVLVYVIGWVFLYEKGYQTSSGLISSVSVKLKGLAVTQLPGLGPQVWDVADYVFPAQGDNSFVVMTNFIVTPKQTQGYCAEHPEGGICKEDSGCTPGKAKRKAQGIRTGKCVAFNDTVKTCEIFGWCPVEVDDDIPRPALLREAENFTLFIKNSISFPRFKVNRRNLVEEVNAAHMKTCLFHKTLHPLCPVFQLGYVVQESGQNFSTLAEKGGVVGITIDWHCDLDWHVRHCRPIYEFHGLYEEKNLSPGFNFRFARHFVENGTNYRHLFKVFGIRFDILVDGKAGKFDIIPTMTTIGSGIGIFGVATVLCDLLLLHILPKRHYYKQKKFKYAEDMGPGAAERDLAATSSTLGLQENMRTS
MAP kinase-activated protein kinase 2, sequence (P49137 whole entry, looked up): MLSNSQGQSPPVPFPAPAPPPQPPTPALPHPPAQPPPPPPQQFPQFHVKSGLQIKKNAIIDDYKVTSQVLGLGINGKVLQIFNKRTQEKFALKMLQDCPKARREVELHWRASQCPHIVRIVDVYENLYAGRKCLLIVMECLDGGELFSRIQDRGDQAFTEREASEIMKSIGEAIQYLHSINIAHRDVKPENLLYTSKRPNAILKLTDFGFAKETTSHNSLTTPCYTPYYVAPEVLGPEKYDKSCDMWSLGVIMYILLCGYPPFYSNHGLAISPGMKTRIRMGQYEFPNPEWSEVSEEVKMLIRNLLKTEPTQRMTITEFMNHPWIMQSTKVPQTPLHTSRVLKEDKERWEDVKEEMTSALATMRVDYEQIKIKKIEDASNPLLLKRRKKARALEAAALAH
Cyclin-dependent kinase 8, sequence (P49336 whole entry): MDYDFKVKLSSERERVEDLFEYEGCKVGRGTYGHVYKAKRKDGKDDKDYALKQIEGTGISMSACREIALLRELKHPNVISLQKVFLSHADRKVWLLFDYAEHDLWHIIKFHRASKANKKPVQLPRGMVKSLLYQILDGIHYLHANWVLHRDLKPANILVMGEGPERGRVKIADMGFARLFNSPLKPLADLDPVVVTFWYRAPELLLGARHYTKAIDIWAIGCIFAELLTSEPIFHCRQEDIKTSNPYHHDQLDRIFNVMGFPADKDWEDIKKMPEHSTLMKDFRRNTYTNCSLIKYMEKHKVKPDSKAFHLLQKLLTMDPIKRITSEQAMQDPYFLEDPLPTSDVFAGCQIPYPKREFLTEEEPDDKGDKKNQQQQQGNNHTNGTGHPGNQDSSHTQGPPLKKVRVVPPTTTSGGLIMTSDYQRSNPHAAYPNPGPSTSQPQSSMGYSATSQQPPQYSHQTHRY
Serine/threonine-protein kinase MRCK beta (Homo sapiens), sequence (Q9Y5S2 whole entry): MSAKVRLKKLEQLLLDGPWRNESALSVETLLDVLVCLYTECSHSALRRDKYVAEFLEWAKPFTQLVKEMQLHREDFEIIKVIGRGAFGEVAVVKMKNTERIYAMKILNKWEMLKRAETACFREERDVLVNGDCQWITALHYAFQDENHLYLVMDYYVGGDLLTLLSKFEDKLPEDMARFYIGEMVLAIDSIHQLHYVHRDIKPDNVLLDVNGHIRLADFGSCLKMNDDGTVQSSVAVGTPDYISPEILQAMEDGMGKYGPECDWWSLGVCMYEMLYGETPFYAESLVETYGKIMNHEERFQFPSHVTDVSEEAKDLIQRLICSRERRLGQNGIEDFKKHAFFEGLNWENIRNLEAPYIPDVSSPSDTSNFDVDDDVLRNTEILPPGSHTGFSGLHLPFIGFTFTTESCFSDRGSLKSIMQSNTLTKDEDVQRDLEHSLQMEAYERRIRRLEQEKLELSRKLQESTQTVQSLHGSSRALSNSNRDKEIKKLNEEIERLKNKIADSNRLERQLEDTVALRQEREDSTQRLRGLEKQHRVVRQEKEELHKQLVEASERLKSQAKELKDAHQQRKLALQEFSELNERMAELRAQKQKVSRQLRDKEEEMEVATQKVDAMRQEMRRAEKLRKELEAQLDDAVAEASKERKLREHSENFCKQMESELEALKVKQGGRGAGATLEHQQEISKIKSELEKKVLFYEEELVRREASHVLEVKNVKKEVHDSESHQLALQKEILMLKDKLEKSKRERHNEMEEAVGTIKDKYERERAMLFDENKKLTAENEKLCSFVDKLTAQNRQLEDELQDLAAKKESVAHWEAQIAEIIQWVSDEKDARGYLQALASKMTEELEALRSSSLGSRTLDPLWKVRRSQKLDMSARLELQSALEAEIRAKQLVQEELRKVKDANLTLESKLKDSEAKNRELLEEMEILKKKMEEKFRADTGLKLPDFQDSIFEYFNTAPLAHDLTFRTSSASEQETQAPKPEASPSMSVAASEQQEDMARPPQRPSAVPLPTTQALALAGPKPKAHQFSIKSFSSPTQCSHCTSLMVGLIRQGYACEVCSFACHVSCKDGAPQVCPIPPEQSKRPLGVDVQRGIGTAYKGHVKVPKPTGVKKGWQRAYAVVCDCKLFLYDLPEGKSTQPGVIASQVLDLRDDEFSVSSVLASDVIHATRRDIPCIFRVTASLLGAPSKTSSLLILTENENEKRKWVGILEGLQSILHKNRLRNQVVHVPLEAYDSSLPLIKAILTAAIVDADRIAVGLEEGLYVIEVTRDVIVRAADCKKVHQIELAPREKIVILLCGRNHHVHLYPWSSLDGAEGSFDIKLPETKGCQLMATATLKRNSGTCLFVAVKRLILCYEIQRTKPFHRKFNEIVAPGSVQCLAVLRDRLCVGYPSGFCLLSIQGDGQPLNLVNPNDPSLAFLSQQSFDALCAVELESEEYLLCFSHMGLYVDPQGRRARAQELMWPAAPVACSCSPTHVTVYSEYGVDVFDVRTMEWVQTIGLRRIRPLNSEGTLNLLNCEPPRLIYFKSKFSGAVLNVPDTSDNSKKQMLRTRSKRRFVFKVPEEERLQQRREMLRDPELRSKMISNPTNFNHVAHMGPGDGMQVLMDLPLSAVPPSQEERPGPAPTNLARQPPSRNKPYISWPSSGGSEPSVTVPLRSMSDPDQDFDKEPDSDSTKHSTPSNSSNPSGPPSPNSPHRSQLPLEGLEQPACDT

CNCCN1CCC(c2cc(CN(C)C(=O)c3cccc(Oc4ccccc4)c3)ccn2)CC1
% of growth rate [1]: -22.5%

O=C(NOC[C@H](O)CO)c1ccc(F)c(F)c1Nc1ccc(I)cc1F
% of control [2]: 100%

CC(=O)c1cc(-c2ccccc2OCC2CC2)c2ncccn12
% of control [3]: 89%

COc1cc(Nc2nc(C)cc(-c3cnn4nc(OC)ccc34)n2)cc(C(F)(F)F)c1
% of control [4]: 92%

CCC(=O)N1CC[C@H](Nc2ncnc3c2CN(c2cnc(OC)c(C(F)(F)F)c2)CC3)C1 [LENIOLISIB]
EC50 [5]: 140 nM

N#Cc1cccc(-c2c[nH]c3ncnc(N4CCOCC4)c23)c1
% of inhibition [6]: 36%

CN1Cc2nccc(-c3cn(C)nc3-c3ccc(F)cc3)c2C1=O
% of inhibition [7]: 3%

O[C@H]1CC[C@H](Nc2ncc3nc(Nc4c(F)cc(F)cc4F)n([C@H]4CCOC4)c3n2)CC1
% of control [8]: 94%

CN(C)CCOc1ccc(-c2nc(-c3ccncc3)c(-c3ccc4c(c3)CC/C4=N\O)[nH]2)cc1
% of control [9]: 89%

CN(C)C/C=C/C(=O)Nc1ccc(C(=O)N2CCCC(Nc3ncc(Cl)c(-c4c[nH]c5ccccc45)n3)C2)cc1 (stereo not given)
% of control [10]: 70%
